Type in all cases: biochemical
In one experiment the target is T1, Human PI3K alpha (Homo sapiens, UniProt P42336).
T1 construct: His (N); host or cells: SF9 insect cells (baculovirus)
Nature of the experiment: Human PI3K alpha enzyme assay (HTRF). The following applies: at a 1.1 μM concentration; read-out: PI3Kα Percent Inhibition.

For another experiment, the target named is T2, Human VPS34 (Homo sapiens, UniProt Q8NEB9).
T2 construct: GST (with thrombin site, pDEST20-Thrombin) (N); host or cells: SF9 insect cells (baculovirus)
The experiment can be described thus: Human VPS34 enzyme assay (Adapta Universal Kinase Assay). The following applies: at a 1.0 μM concentration; read-out: VPS34 Percent Inhibition. The source says: The catalytic subunits of PI3Ks are cloned into either pDEST8(p110 alpha) or pDEST10(p110beta, p110delta, and p110gamma) as N-terminal His tagged fusion proteins using the Gateway system (Invitrogen, catalog#11804-010 for pDEST8 and 11806-015 for pDEST10). The sequences are verified before recombinant protein expression using the Baculovirus Expression System with Gateway® Technology. The accession numbers for the subunits are as follows: • p110 alpha (GB:U79143) • p110beta (GB: S67334) • p110delta (GB: U86453) • p110gamma (GB: X83368) • The regulatory subunits of PI3Ks are cloned into pDEST8 as un-tagged protein using the Gateway system (Catalog#11804-010). The sequences are verified before recombinant protein expression using the Baculovirus Expression System with Gateway® Technology. The accession numbers for the subunits are as following: • p85 alpha (GB: BC030815) • p101(GB: AB028925) • VPS34 (accession number GB:BC033004) is cloned into pDEST20—Thombin as N-terminal GST tagged fusion proteins using the Gateway system (Invitrogen, catalog#11804-013). The sequences are verified before recombinant protein expression using the Baculovirus Expression System with Gateway® Technology.
For expression VPS34 was infected at 1MOI in SF9 cells and harvested 72 hours post infection.
For purification, VPS34 is purified by Glutathione Sepharose 4 Fast Flow (GE Healthcare #17-5132-03) followed by HiTrap Q (GE Healthcare #17-1153-01).
3) VPS34 is assayed using Adapta™ Universal Kinase Assay Kit (Invitrogen).
4) Human VPS34 enzyme assay method
100 nL compounds in DMSO are added to wells of a 384 well microtitre plate (Greiner 780076). At room temperature: 5 ul VPS34 reaction buffer (Invitrogen Assay Buffer Q (diluted 1 in 5 with nanopure water) plus 2 mM DTT and 2 mM MnCl2) containing ATP (20 uM, Promega) and 200 uM PI—PS substrate (Invitrogen PV5122) is added followed immediately by 5 ul VPS34 reaction buffer (as above) containing VPS34 (5 nM, Millennium Protein Sciences Group) and the mixture is incubated with shaking at room temperature for 1 hour. Then 5 ul VPS34 stop-detect mix (as per Invitrogen Adapta Assay kit (PV5009) instructions (contains kinase quench buffer, TR-FRET buffer, Adapta Eu anti-ADP antibody and Alexa Fluor 647 ADP tracer)) is added to quench the reaction. The plates are then incubated for 30 minutes at room temperature with shaking and then read on a BMG PheraStar Plus reader.
For the assay methods described above, test compound percent inhibition, at various concentrations, is calculated relative to control (DMSO and EDTA) treated samples. Compound concentration versus percent inhibition curves are fitted to generate IC50 values. One skilled in the art will appreciate that the values generated either as percentage inhibition at a single concentration or IC50 values are subject to experimental variation.

In a further experiment the target is T3, Human PI3K delta (Homo sapiens, UniProt O00329).
T3 construct: His (N); host or cells: SF9 insect cells (baculovirus)
Nature of the experiment: Human PI3K delta enzyme assay (HTRF). The settings on record: at a 1.0 μM concentration; read-out: PI3Kδ Percent Inhibition. The method, boiled down: (§1)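 Compounds were mixed with 25 uM ATP, then with 3.5 uM di-C8 PI(4,5)P2 and His-tagged PI3K isoform (β 5.25 nM, δ 0.75 nM, γ 5 nM) at pH 7.00. After 30 min at room temperature, EDTA stopped the reaction and PIP3 was measured by HTRF over 1 h.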

The target in the next experiment is T4, Human PI3K gamma (Homo sapiens, UniProt P48736).
T4 construct: His (N); host or cells: SF9 insect cells (baculovirus)
The experiment can be described thus: Human PI3K gamma enzyme assay (HTRF). The following applies: at a 1.0 μM concentration; read-out: PI3Kγ Percent Inhibition. The method, boiled down: as §1

In another experiment the target is T5, Human PI3K beta (Homo sapiens, UniProt P42338).
T5 construct: His (N); host or cells: SF9 insect cells (baculovirus)
Nature of the experiment: Human PI3K beta enzyme assay (HTRF). The settings on record: at a 1.1 μM concentration; read-out: PI3β Percent Inhibition. The method, boiled down:
as §1

Each structure is given as a SMILES string. Structures can show the parent of a compound that is named as a salt.

The values below come from US8796268B2, “Heteroaryls and uses thereof” (Millennium Pharmaceuticals, Inc., priority 2010, dated 2014).

T3 sequence (O00329 whole entry): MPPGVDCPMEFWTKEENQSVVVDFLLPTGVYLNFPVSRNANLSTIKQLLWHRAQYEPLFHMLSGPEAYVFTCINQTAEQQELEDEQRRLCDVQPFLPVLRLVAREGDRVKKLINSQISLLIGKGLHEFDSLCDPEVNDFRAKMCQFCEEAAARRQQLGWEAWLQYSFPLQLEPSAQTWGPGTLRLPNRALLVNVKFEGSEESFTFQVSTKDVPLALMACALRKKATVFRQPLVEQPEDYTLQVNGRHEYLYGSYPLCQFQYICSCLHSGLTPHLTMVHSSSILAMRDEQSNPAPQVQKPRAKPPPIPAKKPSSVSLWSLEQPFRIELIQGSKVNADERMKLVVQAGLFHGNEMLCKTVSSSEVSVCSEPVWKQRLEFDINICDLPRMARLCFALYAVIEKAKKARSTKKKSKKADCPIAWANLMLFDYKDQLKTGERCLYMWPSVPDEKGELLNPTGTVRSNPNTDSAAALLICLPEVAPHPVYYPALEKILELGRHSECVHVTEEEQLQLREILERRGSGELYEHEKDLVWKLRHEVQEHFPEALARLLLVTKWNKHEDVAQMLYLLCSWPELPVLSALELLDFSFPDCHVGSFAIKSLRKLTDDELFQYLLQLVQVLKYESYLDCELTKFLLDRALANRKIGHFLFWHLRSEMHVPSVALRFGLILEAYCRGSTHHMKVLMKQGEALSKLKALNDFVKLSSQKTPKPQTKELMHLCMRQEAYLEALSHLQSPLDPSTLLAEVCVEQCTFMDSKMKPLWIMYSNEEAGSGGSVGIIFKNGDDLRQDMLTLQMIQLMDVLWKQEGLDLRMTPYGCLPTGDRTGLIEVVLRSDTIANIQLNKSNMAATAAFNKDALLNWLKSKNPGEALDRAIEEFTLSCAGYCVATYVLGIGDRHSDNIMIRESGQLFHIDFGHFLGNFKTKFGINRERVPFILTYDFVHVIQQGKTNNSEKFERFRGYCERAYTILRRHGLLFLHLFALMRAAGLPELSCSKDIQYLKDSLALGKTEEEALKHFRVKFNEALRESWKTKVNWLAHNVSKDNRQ
T3 sequence (P27986 whole entry partner): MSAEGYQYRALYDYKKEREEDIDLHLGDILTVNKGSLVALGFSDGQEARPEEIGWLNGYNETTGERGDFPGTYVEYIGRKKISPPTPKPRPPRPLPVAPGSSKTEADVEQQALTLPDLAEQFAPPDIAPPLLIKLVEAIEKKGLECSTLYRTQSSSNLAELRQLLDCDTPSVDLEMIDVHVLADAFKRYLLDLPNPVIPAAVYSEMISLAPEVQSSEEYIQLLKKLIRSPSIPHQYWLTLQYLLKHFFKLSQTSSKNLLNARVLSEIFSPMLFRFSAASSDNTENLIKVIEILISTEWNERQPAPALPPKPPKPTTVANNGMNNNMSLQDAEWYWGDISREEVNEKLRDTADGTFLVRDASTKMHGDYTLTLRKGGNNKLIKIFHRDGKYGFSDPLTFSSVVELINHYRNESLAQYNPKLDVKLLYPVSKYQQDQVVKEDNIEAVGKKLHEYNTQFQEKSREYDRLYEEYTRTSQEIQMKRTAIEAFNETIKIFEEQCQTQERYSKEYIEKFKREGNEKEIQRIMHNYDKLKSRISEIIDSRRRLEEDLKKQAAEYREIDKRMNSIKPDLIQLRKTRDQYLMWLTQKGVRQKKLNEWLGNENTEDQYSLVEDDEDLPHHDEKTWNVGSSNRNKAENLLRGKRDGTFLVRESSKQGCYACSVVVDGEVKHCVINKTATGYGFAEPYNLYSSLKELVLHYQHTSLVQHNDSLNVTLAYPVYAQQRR
T5 sequence (P42338 whole entry): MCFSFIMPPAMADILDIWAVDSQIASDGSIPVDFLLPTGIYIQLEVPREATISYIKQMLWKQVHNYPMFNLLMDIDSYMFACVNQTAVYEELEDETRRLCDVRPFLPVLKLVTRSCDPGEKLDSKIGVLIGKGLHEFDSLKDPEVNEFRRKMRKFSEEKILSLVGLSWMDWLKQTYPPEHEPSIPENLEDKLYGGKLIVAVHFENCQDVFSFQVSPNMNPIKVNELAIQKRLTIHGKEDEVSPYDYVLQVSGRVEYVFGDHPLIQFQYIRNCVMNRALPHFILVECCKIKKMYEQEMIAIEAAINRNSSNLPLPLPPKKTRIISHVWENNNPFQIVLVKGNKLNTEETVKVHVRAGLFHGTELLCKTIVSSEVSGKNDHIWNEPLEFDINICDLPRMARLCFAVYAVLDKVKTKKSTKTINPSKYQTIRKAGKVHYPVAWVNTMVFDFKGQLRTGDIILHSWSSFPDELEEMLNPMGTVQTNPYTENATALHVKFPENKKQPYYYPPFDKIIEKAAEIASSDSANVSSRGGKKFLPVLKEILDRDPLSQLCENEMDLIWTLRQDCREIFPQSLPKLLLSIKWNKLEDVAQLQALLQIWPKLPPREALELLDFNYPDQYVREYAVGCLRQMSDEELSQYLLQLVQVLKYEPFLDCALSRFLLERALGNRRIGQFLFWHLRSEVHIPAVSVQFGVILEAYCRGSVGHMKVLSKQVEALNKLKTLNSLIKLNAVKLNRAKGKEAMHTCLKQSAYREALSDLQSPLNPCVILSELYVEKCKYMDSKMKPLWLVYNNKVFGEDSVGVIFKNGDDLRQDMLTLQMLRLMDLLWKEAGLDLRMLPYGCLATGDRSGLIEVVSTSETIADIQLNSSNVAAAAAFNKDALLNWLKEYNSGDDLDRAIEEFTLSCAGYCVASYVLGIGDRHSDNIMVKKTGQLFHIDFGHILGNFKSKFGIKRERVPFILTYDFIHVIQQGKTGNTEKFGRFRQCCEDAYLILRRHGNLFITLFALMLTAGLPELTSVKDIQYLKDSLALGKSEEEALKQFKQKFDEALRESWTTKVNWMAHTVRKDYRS
T5 sequence (P27986 whole entry partner): as the sequence (P27986 whole entry partner) above
T2 sequence (Q8NEB9 whole entry): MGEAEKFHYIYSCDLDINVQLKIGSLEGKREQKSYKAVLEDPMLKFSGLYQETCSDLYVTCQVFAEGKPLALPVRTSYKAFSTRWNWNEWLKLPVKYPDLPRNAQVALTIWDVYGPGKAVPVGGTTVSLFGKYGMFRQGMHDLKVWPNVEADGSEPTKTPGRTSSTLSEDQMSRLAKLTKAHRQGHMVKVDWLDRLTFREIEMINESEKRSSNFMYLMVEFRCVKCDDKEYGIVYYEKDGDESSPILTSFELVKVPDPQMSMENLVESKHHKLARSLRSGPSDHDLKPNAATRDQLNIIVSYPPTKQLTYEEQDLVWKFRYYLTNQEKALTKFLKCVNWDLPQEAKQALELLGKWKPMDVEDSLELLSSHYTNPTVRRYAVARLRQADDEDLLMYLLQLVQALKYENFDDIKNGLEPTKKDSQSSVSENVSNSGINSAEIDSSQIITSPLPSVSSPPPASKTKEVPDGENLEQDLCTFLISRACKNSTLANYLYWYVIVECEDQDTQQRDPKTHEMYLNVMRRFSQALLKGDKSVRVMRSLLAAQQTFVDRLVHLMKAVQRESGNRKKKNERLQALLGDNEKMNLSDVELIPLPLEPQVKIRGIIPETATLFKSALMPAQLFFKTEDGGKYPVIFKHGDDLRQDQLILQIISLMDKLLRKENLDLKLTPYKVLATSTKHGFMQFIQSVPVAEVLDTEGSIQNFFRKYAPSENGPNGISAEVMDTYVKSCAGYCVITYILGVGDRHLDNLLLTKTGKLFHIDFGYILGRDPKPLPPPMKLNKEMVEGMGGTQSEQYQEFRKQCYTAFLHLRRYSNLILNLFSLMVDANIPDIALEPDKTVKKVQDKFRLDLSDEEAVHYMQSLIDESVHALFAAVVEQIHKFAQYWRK
T4 sequence (P48736 whole entry): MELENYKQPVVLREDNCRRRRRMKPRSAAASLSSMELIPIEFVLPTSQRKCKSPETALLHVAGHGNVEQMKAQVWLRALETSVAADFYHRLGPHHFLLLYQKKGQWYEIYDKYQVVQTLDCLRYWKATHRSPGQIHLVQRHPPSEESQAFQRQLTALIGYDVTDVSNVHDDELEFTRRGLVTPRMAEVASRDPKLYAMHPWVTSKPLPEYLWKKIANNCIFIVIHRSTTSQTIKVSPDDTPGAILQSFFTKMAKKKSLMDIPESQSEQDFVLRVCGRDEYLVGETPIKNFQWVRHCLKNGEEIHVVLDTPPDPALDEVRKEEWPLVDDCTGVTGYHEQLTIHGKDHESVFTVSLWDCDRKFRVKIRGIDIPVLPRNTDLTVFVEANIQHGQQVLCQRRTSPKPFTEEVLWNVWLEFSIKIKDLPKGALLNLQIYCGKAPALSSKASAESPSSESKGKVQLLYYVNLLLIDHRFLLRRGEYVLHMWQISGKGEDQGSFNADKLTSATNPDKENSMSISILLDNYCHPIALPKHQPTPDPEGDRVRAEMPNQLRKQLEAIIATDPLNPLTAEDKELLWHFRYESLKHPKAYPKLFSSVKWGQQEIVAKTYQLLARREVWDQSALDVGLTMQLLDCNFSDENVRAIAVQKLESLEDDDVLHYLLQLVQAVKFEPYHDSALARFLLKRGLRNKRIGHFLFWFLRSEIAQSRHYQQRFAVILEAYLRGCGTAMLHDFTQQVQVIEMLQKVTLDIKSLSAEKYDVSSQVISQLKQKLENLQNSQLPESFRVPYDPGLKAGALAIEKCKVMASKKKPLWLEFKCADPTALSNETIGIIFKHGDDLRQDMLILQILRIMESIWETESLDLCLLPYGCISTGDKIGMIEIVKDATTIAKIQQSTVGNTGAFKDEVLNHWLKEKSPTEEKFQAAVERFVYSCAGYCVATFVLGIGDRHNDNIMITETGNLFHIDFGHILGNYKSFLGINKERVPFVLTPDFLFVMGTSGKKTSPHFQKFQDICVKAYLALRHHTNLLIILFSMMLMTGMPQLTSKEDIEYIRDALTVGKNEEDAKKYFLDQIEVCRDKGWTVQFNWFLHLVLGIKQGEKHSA

The inhibition is the drop in the measured response relative to a control, in per cent. Take `O=C(O)c1sc(N2CCOCC2)nc1Cc1ccc(Cl)cc1Cl` [Compound 104]: the results for the inhibition at 1.1 µM at Human PI3K alpha and on Human PI3K beta were 26% and 109%, respectively. The inhibition at 1 µM on Human VPS34 came out at 63.2%; at Human PI3K delta, 93%; on Human PI3K gamma, 28.8%.

For the compound `N#Cc1c(N2CCOCC2)sc(C(=O)O)c1C(N)c1ccc(Cl)cc1` (stereo not drawn) [Compound 113, 3-[amino(4-chlorophenyl)methyl]-4-cyano-5-(morpholin-4-yl)thiophene-2-carboxylic acid hydrochloride], the inhibition at 1.1 µM was found to be 25% on Human PI3K alpha and 100% on Human PI3K beta. Besides, the figures for the inhibition at 1 µM on Human VPS34, at Human PI3K delta and at Human PI3K gamma were 18.1%, 78.8% and 32.5%, respectively.

Regarding `O=C(O)c1sc(N2CCOCC2)nc1Cc1ccc2cc(F)ccc2c1` [Compound 128], the inhibition at 1.1 µM on Human PI3K alpha was 46%; at Human PI3K beta it was 106%. Besides, the results for the inhibition at 1 µM on Human VPS34, at Human PI3K delta and on Human PI3K gamma were 88.1%, 114% and 63.4%, respectively.

On to `COc1cc(Cl)ccc1Cc1c(C(=O)O)sc(N2CCOCC2)c1C#N` [Compound 125], for which the inhibition at 1.1 µM on Human PI3K alpha is 46%; at Human PI3K beta, 99%. Besides, the figures for the inhibition at 1 µM on Human VPS34, at Human PI3K delta and at Human PI3K gamma were 37.1%, 85.1% and 25.9%, respectively.

Take `O=C(O)c1sc(N2CCOCC2)nc1Cc1ccc(F)cc1` [Compound 119]: the inhibition at 1.1 µM was determined as 9% at Human PI3K alpha and 88% at Human PI3K beta. The inhibition at 1 µM on Human VPS34 amounted to 19.5%; at Human PI3K delta, 62.6%; on Human PI3K gamma, 7.6%.

For `COc1cc(Cc2c(C(=O)O)sc(N3CCOCC3)c2C#N)ccc1Cl` [Compound 122], the inhibition at 1.1 µM on Human PI3K alpha was 49%; on Human PI3K beta, 106%. Moreover, the inhibition at 1 µM at Human VPS34 amounted to 55.2%; at Human PI3K delta, 96.2%; on Human PI3K gamma, 49.6%.

`COc1ccc(Cc2c(C(=O)O)sc(N3CCOCC3)c2C#N)cc1Cl` [Compound 108]: the results for the inhibition at 1.1 µM at Human PI3K alpha and at Human PI3K beta were 44% and 100%, respectively. The inhibition at 1 µM at Human VPS34 worked out at 62.4%; on Human PI3K delta, 99.6%; on Human PI3K gamma, 38.1%.

For `N#Cc1c(N2CCOCC2)sc(C(=O)O)c1Cc1ccc2ccccc2c1` [Compound 112], the results for the inhibition at 1.1 µM on Human PI3K alpha and at Human PI3K beta were 95% and 110%, respectively. Besides, the inhibition at 1 µM was determined as 37.8% on Human VPS34, 114% on Human PI3K delta and 69% on Human PI3K gamma.

With `COc1cc(Cc2c(C(=O)O)sc(N3CCOCC3)c2C#N)c(F)cc1Cl` [Compound 127], the inhibition at 1.1 µM at Human PI3K alpha was 40%; at Human PI3K beta, 110%. The inhibition at 1 µM on Human VPS34 is 33.7%; at Human PI3K delta, 100%; on Human PI3K gamma, 55%.

Regarding `N#Cc1c(N2CCOCC2)sc(C(=O)O)c1Cc1ccc(F)cc1` [Compound 97], the inhibition at 1.1 µM came to 53% at Human PI3K alpha and 101% at Human PI3K beta. The inhibition at 1 µM was 45% at Human VPS34, 89.8% at Human PI3K delta and 17.8% at Human PI3K gamma.

For `O=C(O)c1sc(N2CCOCC2)nc1Cc1ccc(Cl)c(Cl)c1` [Compound 114], the figures for the inhibition at 1.1 µM on Human PI3K alpha and at Human PI3K beta were 40% and 106%, respectively. In addition, the inhibition at 1 µM at Human VPS34 is 131%; at Human PI3K delta it was 113%; at Human PI3K gamma, 56.9%.

Regarding `N#Cc1c(N2CCOCC2)sc(C(=O)O)c1Cc1ccc(Cl)c(F)c1` [Compound 94, 3-(4-chloro-3-fluorobenzyl)-4-cyano-5-morpholin-4-ylthiophene-2-carboxylic acid], the inhibition at 1.1 µM came out at 58% at Human PI3K alpha and 97% on Human PI3K beta. Further, the inhibition at 1 µM on Human VPS34 turned out to be 30.6%; on Human PI3K delta it was 102%; on Human PI3K gamma it was 52.6%.
